According to ChEMBL document CHEMBL1201862, “PubChem BioAssay data set” (2004):
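Each compound was tested at five concentrations against cells in 96-well plates for 48 hours. Here, GI50 denotes the concentration required for 50% inhibition of growth.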 Calls of active or inactive are those of the source. Cut-off read from the data, not from the text of the source: active = GI50 up to about 1.1 µM and inactive = higher. Where a SMILES comes first, the peptide text is derived from it. The star is where a group is joined. Boc = CC(C)(C)OC(=O)*

Legend:
Test in all cases: NCI anticancer screen, dose series, 48 h
[1] = test system: SF-295
[2] = test system: SK-MEL-5
[3] = test system: NCI-H522
[4] = test system: OVCAR-5
[5] = test system: HL-60
[6] = test system: Malme-3M
[7] = test system: MOLT-4
[8] = test system: SK-MEL-2
[9] = test system: CAKI-1
[10] = test system: CCRF-CEM
[11] = test system: M14
[12] = test system: HOP-62
[13] = test system: U-251
[14] = test system: DMS-273
[15] = test system: KM12
[16] = test system: XF498
[17] = test system: A498
[18] = test system: SF-268
[19] = test system: TK-10
[20] = test system: RPMI-8226
[21] = test system: HCT-116
[22] = test system: OVCAR-4
[23] = test system: SR
[24] = test system: UACC-62
[25] = test system: A549
[26] = test system: DMS-114
[27] = test system: HT-29
[28] = test system: M19-MEL
[29] = test system: RXF 631
[30] = test system: SNB-78
[31] = test system: SK-OV-3
[32] = test system: K562
[33] = test system: NCI-H226
[34] = test system: SN12C
[35] = test system: ACHN
[36] = test system: DLD-1
[37] = test system: LOX IMVI
[38] = test system: COLO 205
[39] = test system: OVCAR-8
[40] = test system: 786-0
[41] = test system: LXFL 529
[42] = test system: HCT-15
[43] = test system: OVCAR-3
[44] = test system: EKVX
[45] = test system: SK-MEL-28
[46] = test system: SNB-19
[47] = test system: NCI-H460
[48] = test system: SNB-75
[49] = test system: HOP-18
[50] = test system: UO-31
[51] = test system: UACC-257
[52] = test system: KM-20L2
[53] = test system: RXF 393
[54] = test system: SW-620
[55] = test system: IGROV-1
[56] = test system: HOP-92
[57] = test system: NCI-H23
[58] = test system: SF-539
[59] = test system: HCC 2998

Measured: GI50

CC(=O)Oc1c(C)n(CCCl)ccc1=O
inactive: [1] > 100 µM | [2] > 100 µM | [3] > 100 µM | [4] 56.6 µM | [5] > 100 µM | [6] > 100 µM | [7] > 100 µM | [8] > 100 µM | [9] > 100 µM | [10] 84.3 µM | [11] > 100 µM | [12] > 100 µM | [13] > 100 µM | [14] > 100 µM | [15] > 100 µM | [16] > 100 µM | [17] > 100 µM | [18] > 100 µM | [19] 22.5 µM | [20] > 100 µM | [21] > 100 µM | [22] > 100 µM | [23] > 100 µM | [24] > 100 µM | [25] > 100 µM | [26] > 100 µM | [27] > 100 µM | [28] > 100 µM | [29] 59.4 µM | [30] > 100 µM | [31] > 100 µM | [32] > 100 µM | [33] > 100 µM | [34] > 100 µM | [35] 69.3 µM | [36] > 100 µM | [37] > 100 µM | [38] > 100 µM | [39] > 100 µM | [40] > 100 µM | [41] > 100 µM | [43] > 100 µM | [44] > 100 µM | [45] > 100 µM | [46] > 100 µM | [47] 44.6 µM | [48] > 100 µM | [49] > 100 µM | [50] 59.2 µM | [51] > 100 µM | [52] 57.7 µM | [53] > 100 µM
34.8 µM: [42]

FC1OC2OC1C(OCc1ccccc1)C(OCc1ccccc1)C2OCc1ccccc1 (configuration not stated)
35.7 µM: [42]
inactive: [1] > 100 µM | [2] 45.6 µM | [3] > 10 µM | [4] > 100 µM | [5] 24.9 µM | [6] 48.3 µM | [7] 22.8 µM | [8] 71.8 µM | [9] 35.5 µM | [10] 26.6 µM | [11] 28.1 µM | [13] 88.3 µM | [14] > 100 µM | [15] 49.1 µM | [54] 40.6 µM | [16] 23.6 µM | [17] > 100 µM | [18] 32.4 µM | [19] 52.8 µM | [20] 22.9 µM | [55] 34.6 µM | [21] 25.3 µM | [22] 34.1 µM | [24] 30.1 µM | [25] 72.8 µM | [26] 29.5 µM | [27] 34.8 µM | [28] 29.8 µM | [29] 71.1 µM | [30] 61.1 µM | [56] 15.3 µM | [31] > 100 µM | [32] 25.8 µM | [33] 77.3 µM | [34] 58.6 µM | [36] 37.9 µM | [37] 43.8 µM | [38] 61.9 µM | [39] 35.4 µM | [40] 43.2 µM | [57] > 100 µM | [41] 34 µM | [43] 36.8 µM | [58] > 100 µM | [44] 87.7 µM | [45] 33.4 µM | [46] 84.9 µM | [47] > 100 µM | [48] 34.7 µM | [49] 24.3 µM | [50] 36.1 µM | [51] 35.5 µM | [52] 42.8 µM | [53] > 100 µM

CC(C)(C)OC(=O)NC(Cc1ccc(O)cc1)C(=O)N1CCCC1C(=O)O (stereo not drawn) (Boc-Tyr-Pro-OH; configuration not given here)
inactive: [1] > 100 µM | [2] > 100 µM | [3] > 100 µM | [4] > 100 µM | [5] > 100 µM | [6] > 100 µM | [7] > 100 µM | [8] > 100 µM | [9] > 100 µM | [10] > 100 µM | [11] > 100 µM | [12] > 100 µM | [13] > 100 µM | [14] > 100 µM | [15] > 100 µM | [54] > 100 µM | [16] > 100 µM | [17] > 100 µM | [18] > 100 µM | [19] > 100 µM | [20] > 100 µM | [55] > 100 µM | [21] > 100 µM | [22] > 100 µM | [23] > 100 µM | [24] > 100 µM | [25] > 100 µM | [26] > 100 µM | [27] > 100 µM | [28] > 100 µM | [59] > 100 µM | [29] > 100 µM | [30] > 100 µM | [56] > 100 µM | [31] > 100 µM | [32] > 100 µM | [33] > 100 µM | [34] > 100 µM | [35] > 100 µM | [36] > 100 µM | [37] > 100 µM | [38] > 100 µM | [39] > 100 µM | [40] > 100 µM | [57] > 100 µM | [41] > 100 µM | [43] > 100 µM | [58] > 100 µM | [44] > 100 µM | [45] > 100 µM | [46] > 100 µM | [47] > 100 µM | [48] > 100 µM | [49] > 100 µM | [50] > 100 µM | [51] > 100 µM | [52] > 100 µM | [53] > 100 µM
> 100 µM: [42]

NC1=NC(=O)C(CC(=O)Nc2ccc([N+](=O)[O-])cc2[N+](=O)[O-])S1 (configuration not stated)
inactive: [1] > 100 µM | [2] > 100 µM | [4] > 100 µM | [5] 83.2 µM | [6] > 100 µM | [7] > 100 µM | [8] > 100 µM | [10] > 100 µM | [11] > 100 µM | [12] > 100 µM | [13] > 100 µM | [15] > 100 µM | [54] > 100 µM | [16] > 100 µM | [18] > 100 µM | [19] > 100 µM | [20] > 100 µM | [55] > 100 µM | [21] > 100 µM | [22] > 100 µM | [24] > 100 µM | [25] > 100 µM | [26] > 100 µM | [27] > 100 µM | [28] > 100 µM | [59] > 100 µM | [29] > 100 µM | [30] > 100 µM | [56] 16.7 µM | [33] > 100 µM | [34] > 100 µM | [35] > 100 µM | [36] > 100 µM | [37] > 100 µM | [38] > 100 µM | [39] > 100 µM | [40] > 100 µM | [57] > 100 µM | [41] > 100 µM | [43] > 100 µM | [44] > 100 µM | [45] > 100 µM | [46] > 100 µM | [47] > 100 µM | [48] 92.9 µM | [49] 52 µM | [50] > 100 µM | [51] > 100 µM | [52] > 100 µM | [53] > 100 µM
